Here are results for 16 molecules from ChEMBL document CHEMBL1145232, “Synthesis of the naphthalene-derived inhibitors against Cdc25A dual-specificity protein phosphatase and their biological activity” (Bioorg Med Chem Lett, 2005).

In brackets after ≈: the same amount, converted by molar mass. Some results are limits rather than exact numbers.

The test is described as follows: In vitro inhibitory concentration against Cdc25A protein phosphatase.
Consider `COC1=CC(=O)c2c(OC)cc(OC)cc2C1=O`, for which the IC50 stood at 0.4 µg/mL (≈ 1.61 µM).

Regarding `CNC1=CC(=O)c2c(OC)cc(C[C@@H]3CCOC(C)(C)O3)cc2C1=O`, the IC50 was more than 10 µg/mL.

`CNC1=CC(=O)c2c(OC)cc(COC)cc2C1=O` displayed an IC50 of more than 10 µg/mL.

`COC1=CC(=O)c2c(OC)cc(C[C@@H]3CCOC(C)(C)O3)cc2C1=O` displayed a half-maximal inhibitory concentration (IC50) of 0.4 µg/mL (≈ 1.15 µM).

Molecule `CCCCCC(O)c1c(C/C=C/CO)cc2c(c1OC)C(=O)C=C(NC)C2=O` (stereo unspecified) returned an IC50 of more than 10 µg/mL.

The molecule `COC1=CC(=O)c2c(cc(C/C=C/CO)c(C(O)c3ccccc3)c2OC)C1=O` (stereo unspecified) came in with an IC50 of 2.74 µg/mL (≈ 6.95 µM).

In turn, `CNC1=CC(=O)c2c(cc(C/C=C/CO)c(C(O)c3ccccc3)c2OC)C1=O` (stereo unspecified) came in with an IC50 of more than 10 µg/mL.

For the molecule `CCCCC(O)c1c(C/C=C/CO)cc2c(c1O)C(=O)C=C(OC)C2=O` (stereo unspecified), the IC50 was 1.51 µg/mL (≈ 4.19 µM).

In turn, `CCCCC(O)c1c(C/C=C/CO)cc2c(c1OC)C(=O)C=C(OC)C2=O` (stereo unspecified) came in with a half-maximal inhibitory concentration (IC50) of 1.77 µg/mL (≈ 4.73 µM). This IC50 and that of the molecule before are within 1.5-fold of each other.

With `CCCCC(O)c1c(C/C=C/CO)cc2c(c1O)C(O)=C/C(=N\C)C2=O` (stereo unspecified), the IC50 is more than 10 µg/mL.

`CCC(O)c1c(C/C=C/CO)cc2c(c1OC)C(=O)C=C(NC)C2=O` (stereo unspecified) registered an IC50 of more than 10 µg/mL.

`CCCCC(O)c1c(C/C=C/CO)cc2c(OC)c(OC)cc(OCc3ccccc3)c2c1OC` (stereo unspecified): the IC50 is more than 10 µg/mL.

`COc1cc(OCc2ccccc2)c2c(OC)cc(C[C@@H]3CCOC(C)(C)O3)cc2c1OC` displayed an IC50 of more than 10 µg/mL.

`CCCC[C@H]1O[C@@H](CC(=O)O)Cc2cc3c(c(O)c21)C(=O)C=C(NC)C3=O` (racemic): the IC50 entry is “>= 10 ug ml-1”.

The molecule `CCCCCC(O)c1c(C/C=C/CO)cc2c(c1OC)C(=O)C=C(OC)C2=O` (stereo unspecified) came in with an IC50 of 1.6 µg/mL (≈ 4.12 µM).

`CCC(O)c1c(C/C=C/CO)cc2c(c1OC)C(=O)C=C(OC)C2=O` (stereo unspecified): the IC50 came to 1.86 µg/mL (≈ 5.37 µM).

For orientation: IC50 means the concentration at which inhibition is half-maximal. A high value points to lower potency.
